According to ChEMBL document CHEMBL1777758, “Selective labeling and monitoring pH changes of lysosomes in living cells with fluorogenic pH sensors” (Bioorg Med Chem Lett, 2011):

How the values were obtained:
[1] = Dissociation constant, pKa of the compound; type: physicochemical
[2] = Drug uptake in lysosomes of BPAEC at 1 uM after 30 mins by fluorescence microscopy; type: ADME, Bos taurus, Lysosome; conditions: cattle, 0.5 h

pKa [1]	Drug uptake [2]	Compound
3.2	Active	CCN(CC)c1ccc(C2=C3C=CC(CCC(=O)OC)=[N+]3[B-](F)(F)n3c(CCC(=O)OC)ccc32)cc1
5.2	Active	CCN(CC)c1ccc(C2=C3C(C)=CC(C)=[N+]3[B-](F)(F)n3c(C)cc(C)c32)cc1
3.2	Active	CCN(CCCC(=O)OC)c1ccc(C2=C3C(C)=CC(C)=[N+]3[B-](F)(F)n3c(C)cc(C)c32)cc1
3.2	Active	CC1=CC(C)=[N+]2C1=C(c1ccc(N(C)C)cc1)c1c(C)cc(C)n1[B-]2(F)F
